Assay results reported in BindingDB's records for doi:10.1038/nchembio.2306 (AbbVie Inc, 2017).

Key:
Polycomb protein EED [1] = molecular target: T1, Polycomb protein EED (Homo sapiens, UniProt O75530); assay: TR-FRET Binding Assay; conditions: pH 7.5; 25 °C
Protocol: (§1) The following buffer was used to set up the binding reactions: 20 mM Tris-HCl pH 7.5, 200 mM NaCl, 0.01% Tween-20, 10 μM DTT, and 0.05% BSA, with the DTT and BSA added fresh before initiating the binding assay. […] The reactions were then incubated for 1 h at 25 °C in a humidified chamber to obtain thermodynamic equilibrium before detection on the PerkinElmer Envision plate reader using a LanthaScreen TR-FRET protocol.

Polycomb protein EED [2] = molecular target: T1, Polycomb protein EED; assay: EED A-395 Peptide Competition Assay; conditions: pH 7.5; 25 °C
Protocol: as §1, with “chamber” for “chamber to obtain thermodynamic equilibrium”, “an AlphaLISA/Screen” for “a LanthaScreen TR-FRET”

Polycomb protein EED [3] = molecular target: T1, Polycomb protein EED; assay: Radioligand Binding Assay; conditions: 23 °C
Protocol: 30 μl of reaction mixtures were incubated at 23 °C for 70 min. To stop the enzymatic reactions, 150 μl of 10% trichloroacetic acetic acid (TCA) was added, mixed and transferred to filter plates (Millipore; cat. # MSFBN6B10). Plates were centrifuged at 2,000 r.p.m. (Allegra X-15R - Beckman Coulter, Inc.) for 2 min followed by two additional 10% TCA washes and one ethanol wash followed by centrifugation.

T1 sequence (O75530 whole entry): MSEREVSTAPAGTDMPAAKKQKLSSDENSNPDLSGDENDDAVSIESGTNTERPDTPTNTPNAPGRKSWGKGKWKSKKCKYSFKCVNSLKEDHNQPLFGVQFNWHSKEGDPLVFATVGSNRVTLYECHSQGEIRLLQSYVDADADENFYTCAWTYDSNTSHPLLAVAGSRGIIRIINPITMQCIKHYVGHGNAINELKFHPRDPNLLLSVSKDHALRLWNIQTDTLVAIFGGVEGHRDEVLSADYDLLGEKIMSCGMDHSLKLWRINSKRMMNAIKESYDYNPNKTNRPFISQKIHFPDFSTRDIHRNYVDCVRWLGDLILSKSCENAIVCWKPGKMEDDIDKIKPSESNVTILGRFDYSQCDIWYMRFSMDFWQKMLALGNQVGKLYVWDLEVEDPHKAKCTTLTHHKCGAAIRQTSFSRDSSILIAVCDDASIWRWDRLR

Ki (Polycomb protein EED [1])	IC50 (Polycomb protein EED [2])	IC50 (Polycomb protein EED [3])	Structure (SMILES)
4 nM			Cc1cccc(F)c1CN1C[C@H](c2cn(C)c3ccccc23)[C@@H](N(C)C)C1 (racemic) [rac-(3R,4S)-1-(2-fluoro-6-methylbenzyl)-N,N-dimethyl-4-(1-methyl-1H-indol-3-yl)pyrrolidin-3-amine (2)]
1 nM			CN(C)[C@H]1CN([C@H]2CCc3cccc(F)c32)C[C@@H]1c1cn(C)c2ccccc12 [(3R,4S)-1-[(1S)-7-fluoroindan-1-yl]-N,N-dimethyl-4-(1-methylindol-3-yl)pyrrolidin-3-amine (3)]
1830 nM	1320 nM	> 50000 nM	CN(C)[C@@H]1CN(Cc2ccccc2)C[C@H]1c1ccc(N2CCN(S(C)(=O)=O)CC2)cc1 [A-395N (6)]
